Literature values in US4086220A, “Fragments of secretin” (G. D. Searle & Co., priority 1976, dated 1978).

Conditions: on a molar basis; parent molecule = intact secretin

For “Amino acid fragments of the molecule from position 1 to 14: Secretin fragment, positions 1 to 14 (containing the helical portion), reported in literature (Rayford et al.) (HSDGTFTSELSRLR; Secretin; UniProt P09683 28-41, looked up, fragment)”, the “lipolytic activity relative to that of the parent molecule” value is listed as “about 0.5%”.
